Assay results published in ChEMBL document CHEMBL3046038, “Antifeedant effects and chemical composition of essential oils from different populations of Lavandula luisieri L” (Biochem Syst Ecol, 2006).

Experiments:
Spodoptera littoralis [1] = experiment: Antifeedant activity against […] Spodoptera littoralis fed on compound treated artificial diet by choice feeding assay; format: functional, organism-based
Myzus persicae = experiment: Antifeedant activity against apterous adult Myzus persicae (green peach aphid) fed on compound treated bell pepper assessed as settling on leaf by choice feeding assay (reference value: 52 to 70%); format: functional
[2] = test system: Leptinotarsa decemlineata; experiment: Antifeedant activity against adult Leptinotarsa decemlineata fed on compound treated potato foliage by choice feeding assay; format: functional, organism-based
Spodoptera littoralis [3] = experiment: Antifeedant activity against Spodoptera littoralis fed on compound treated artificial diet assessed as food ingested by choice feeding assay relative to control; format: functional
Spodoptera littoralis [4] = experiment: Antifeedant activity against Spodoptera littoralis fed on compound treated artificial diet assessed as larval weight gain by choice feeding assay relative to control; format: functional

Compound `C=C1C(=O)C(C)=C(C)C1(C)C` has an EC50 (Spodoptera littoralis [1]) of over 50 microg/cm2, an Activity (Myzus persicae) of 48% and an EC50 [2] of over 50 microg/cm2. It also gave an Activity (Spodoptera littoralis [3]) of 88% and an Activity (Spodoptera littoralis [4]) of 87%.

Work on `CC12CCC(CC1=O)C2(C)C` (stereo not given) [CAMPHOR] yielded an EC50 (Spodoptera littoralis [1]) of over 50 microg/cm2, an Activity (Myzus persicae) of 40% and an EC50 [2] of over 50 microg/cm2. It also gave an Activity (Spodoptera littoralis [3]) of 83% and an Activity (Spodoptera littoralis [4]) of 97%.

In the case of `CC12CCC(CC1)C(C)(C)O2` [EUCALYPTOL], the EC50 (Spodoptera littoralis [1]) is reported as over 50 microg/cm2, the Activity (Myzus persicae) is reported as 37% and the EC50 [2] is reported as over 50 microg/cm2. The Activity (Spodoptera littoralis [3]) was 95% and the Activity (Spodoptera littoralis [4]) was 96%.

Work on `CC12CCC(C1)C(C)(C)C2=O` (stereo not given) [FENCHONE] yielded an EC50 (Spodoptera littoralis [1]) of over 50 microg/cm2, an Activity (Myzus persicae) of 30% and an EC50 [2] of over 50 microg/cm2. It also gave an Activity (Spodoptera littoralis [3]) of 91% and an Activity (Spodoptera littoralis [4]) of 100%.
